Test system: human HBB gene locus in CD34+ HSPCs
Assay: In vitro editing of HBB in CD34+ HSPCs with RNP and AAV donor template; HDR and INDELs by NGS (Example 1)
Type: cell-based
Conditions: T107 RNP+AAV.320 with i53 (1 μg mRNA)
Description: Gene-editing of HBB was evaluated in CD34+ HSPCs. […] HSPCs were maintained in culture media containing IL-3 and were incubated at 37° C. under atmospheric conditions containing 5% carbon dioxide and 4% oxygen. […] To perform gene-editing, the cells were electroporated with RNP. Specifically, 1×10^6 cells were electroporated using the Maxcyte HSC-3 program with RNP containing 20 μg SpCas9 and 20 μg sgRNA (T107 or R02). AAV donor template was administered to cells prior to electroporation. Specifically, the cells were incubated with AAV (AAV.320 or AAV.323 respectively) at a dose of 10,000 MOI for one hour prior to electroporation.
Given efficiency of HDR repair is poor due to competition with other repair pathways (e.g., the NHEJ pathway), particularly in non-dividing or slowly dividing cells such as HSPCs, editing was also evaluated following treatment with molecules that inhibit targets in the NHEJ pathway, including 53BP1 and DNA-PK. […]
To evaluate HDR editing efficiency, genomic DNA was harvested from treated cells, and the frequency of the HBB allele encoding the expected gene edit (i.e., GAA encoding glutamate at position 6 downstream the HBB start codon (“E6”) for cells transduced with AAV.323 and silent mutations for cells transduced with AAV.320) was evaluated using a PCR amplification-based assay followed by next-generating sequencing (NGS). […]

i53: polypeptide inhibitor of 53BP1 (SEQ ID NO: 11), introduced as an mRNA-encoded protein (ORF SEQ ID NO: 10)
HDR efficiency (donor-template-encoded gene-edit in HBB): approximately 25%
